# What was measured:
# iROS = iROS production in neuron-glia cultures of PHOX+/+ and PHOX−/− mice; assay type: cell-based, mouse; conditions: DM 10^−14 M
# Method: (§1) The neuron-glia cultures were treated with vehicle, LPS 10 ng/ml alone, and DM (10^−14 M) 30 min pretreatment followed by LPS treatment as in Example 1. Neurotoxicity was assessed by DA uptake as described in Example 1. TNFα production was measured by ELISA and iROS was determined by DCFDA as in Example 5. Results are expressed as a percentage of the control culture in FIG. 7A, pg/ml in FIG. 7B, and difference from control in FIG. 7C, respectively, and are the mean±S.E.M. of five individual experiments with triplicates in each experiment. *, P<0.05 compared with LPS culture.
# CD-1 mice given LPS/GalN [1] = experiment: Serum ALT in LPS/GalN endotoxic shock; assay type: in vivo, mouse; conditions: for serum ALT level: 12 hrs after LPS/GalN
# Method: (§2) Endotoxic shock was induced in the mice by administering a single intraperitoneal dose of lipopolysaccharide/D-(+/−)Glactosomine (Sigma, St. Louis, Mo.) (LPS/GalN) (20 μg/700 mg/kg) in saline. To test whether DM has protective effects on septic shock, varying concentrations (6.25, 12.5 and 25 mg/kg) of DM were injected into the mice subcutaneously 30 min before, and 2, and 4 hr after the injection of LPS/GalN. Control mice received the same amount of saline. At different time points, the animals were killed, and serum and liver samples were collected.
# (§3) To examine the therapeutic effects of DM, animals were treated with […] DM at 30 min before LPS/GalN injection, and 30, 60 and 120 min after LPS/GalN administration. Serum ALT was measured to evaluate the therapeutic effects of the DM. Survival rate was evaluated within 12 hours after endotoxin administration.
# Serum alanine aminotransferase (ALT) activity was assayed as a marker of hepatocellular death using a commercially available kit (Infinite ALT, Sigma, St. Louis, Mo.). A portion of the liver was fixed in 10% neutral formalin, processed by standard histological techniques, stained with hematoxylin and eosin, and examined for morphological evidence of liver injury.
# iNOS = experiment: Western blot of iNOS in microglia enriched cultures; assay type: cell-based, rat; conditions: femto-molar DM, 30 min pretreatment, LPS
# Method: Western blots were used to analyze possible effects of DM on iNOS and COX2 production in rat microglia enriched cultures. The cultures were prepared and treated with vehicle, OM DM, 10^−14DM, LPS alone, and LPS with different concentrations of DM. The production of iNOS (inducible nitric oxide synthenase) and COX2 (cycloxyase 2) in the culture extracts were detected by Western Blot assay. Data in FIG. 9B represent the mean±S.E.
# [2] = system: dopaminergic neurons in PHOX^+/+ and PHOX^−/− mouse neuron-glia cultures; experiment: [3H]DA uptake in neuron-glia cultures of PHOX+/+ and PHOX−/− mice; assay type: cell-based; conditions: DM 10^−14 M, LPS 10 ng/ml
# Method: To further study the role of ROS in DM-elicited neuroprotection, neuron-glia cultures were prepared from NADPH oxidase-deficient (PHOX^−/−) and wild-type (PHOX^+/+) mice.
# as §1, with “Neurotoxicity” for “The neuron-glia cultures were treated with vehicle, LPS 10 ng/ml alone, and DM (10^−14 M) 30 min pretreatment followed by LPS treatment as in Example 1. Neurotoxicity”
# The rat and mouse ventral mesencephalic neuron-glia cultures were prepared as in Example 1. […] DA neurotoxicity was measured by using the [^3H] DA uptake assay as in Example 1. The data are expressed as the percent of the control cultures and are the mean±SEM. The release of TNFα was measured with a commercially available enzyme-linked immunosorbent assay kit. *P<0.05, **P<0.01, compared to control. The amount of TNFα was measured as in Example 2.
# CD-1 mice given LPS/GalN [3] = experiment: Survival in LPS/GalN endotoxic shock; assay type: in vivo, mouse; conditions: for Rate of survival % / No. of animals survived: 12 hrs; for Rate of survival: 30 min before and 2, 4 hr after LPS/GalN; for Rate of survival / Survived animal: 12 hours
# Method: Animal studies were performed in accordance with National Institutes of Health Guidelines and with the approval of the Institute's Animal Care and Use Committee, and followed NIH guidelines. Male, CD-1 mice (6-week-old) were purchased from Charles River laboratories, fed on a standard diet and with tap water ad libitum for two weeks. Environmental conditions were standardized, including a room temperature of 21° C. and 12 hours artificial lighting. Mice were fasted 12 hrs before use.
# as §2, §3
# Endotoxic shock were induced in mice in the same was as Example 16. The mice were given LPS/GalN (20 μg/700 mg/kg, ip) with or without the administration of DM (10 mg/kg, 1 μg/kg and 100 pg/kg, s.c.) 30 min before LPS/GalN. The survival rate of the animals was evaluated 12 hrs after LPS/GalN treatment.
# [4] = system: neurons in neuron-enriched cultures; experiment: MAP-2 / TH immunostaining morphology of neuron-enriched cultures; assay type: cell-based, rat; conditions: 7 days exposure; media conditioned 48 hours; VPA 0.6 mM
# Method: Neuron-enriched cultures were immunostained with MAP-2 for morphological examination. FIGS. 40A-40D show morphological features of neuron-enriched cultures were examined after incubation with vehicle (A), 0.6 mM VPA (B), ACM (C) or ACM-VPA (D) for 7 days and then immunocytostaining with MAP-2 antibody.
# The immunostaining was carried out according to the following procedure. Formaldehyde (3.7%)-fixed cultures were treated with 1% hydrogen peroxide (10 min) followed by sequential incubation with blocking solution (30 min), primary antibody (overnight, 4° C.), biotinylated secondary antibody (2 hours), and ABC reagents (40 min) (Vector Laboratories, Burlingame, Calif.). The color development was achieved by the addition of 3,3′-diaminobenzidine. For morphological analysis, the images were recorded with an inverted microscope (Nikon, Tokyo, Japan) connected to a charge-coupled device camera (DAGE-MTI, Michigan City, Ind.) operated with the MetaMorph software (Universal Imaging Corporation, Downingtown, Pa.). For visual counting of TH-IR neurons, nine representative areas per well of the 24-well plate were counted under the microscope at 100× magnification.
# To specifically visualize morphological changes in DA neurons, we immunostained neuron-enriched cultures with anti-TH antibody. […]
smiles,measurement,setting,value
"COc1ccc2c(c1)[C@@]13CCCC[C@H]1[C@@H](C2)N(C)CC3 [DM, d-3-methoxy-N-methylmorphinan]",LPS-induced iROS production,iROS; PHOX+/+ mice,significantly inhibited iROS production
same,LPS-induced iROS production,iROS; PHOX−/− mice,failed to show any effect
same,serum ALT level,CD-1 mice given LPS/GalN [1]; DM 12.5 mg/kg,about 25 % of LPS/GalN group
same,serum ALT level,CD-1 mice given LPS/GalN [1]; DM 25 mg/kg,about 25 % of LPS/GalN group
same,time-dependent reduction of serum ALT level,"CD-1 mice given LPS/GalN [1]; DM 30 min pre-treatment and 30, 60, 120 min post-treatments","the later the DM treatment, the less protective"
same,protein content of iNOS,iNOS,failing to affect the protein content
same,LPS-induced reduction of [3H]-dopamine uptake,[2]; PHOX+/+ mice,significantly attenuated this decrease
same,LPS-induced reduction of [3H]-dopamine uptake,[2]; PHOX−/− mice,failed to show any protective effect
same,Rate of survival %,CD-1 mice given LPS/GalN [3]; DM 100 pg/kg s.c. 30 min before LPS/GalN,76.6%
same,No. of animals survived,"CD-1 mice given LPS/GalN [3]; DM 100 pg/kg s.c., 47 animals in group",36
same,Rate of survival %,CD-1 mice given LPS/GalN [3]; DM 1 ug/kg s.c. 30 min before LPS/GalN,58.8%
same,No. of animals survived,"CD-1 mice given LPS/GalN [3]; DM 1 ug/kg s.c., 17 animals in group",10
same,Rate of survival,CD-1 mice given LPS/GalN [3]; DM 6.25 mg/kg,67%
same,Rate of survival,"CD-1 mice given LPS/GalN [3]; DM 6.25 mg/kg, listed as Dextromethorphan",66.6%
same,Survived animal,"CD-1 mice given LPS/GalN [3]; DM 6.25 mg/kg, n = 12",8
same,Rate of survival %,CD-1 mice given LPS/GalN [3]; DM 10 mg/kg s.c. 30 min before LPS/GalN,84.6%
same,No. of animals survived,"CD-1 mice given LPS/GalN [3]; DM 10 mg/kg s.c., 26 animals in group",22
same,Rate of survival,CD-1 mice given LPS/GalN [3]; DM 12.5 mg/kg,about 90%
same,Rate of survival,"CD-1 mice given LPS/GalN [3]; DM 12.5 mg/kg, listed as Dextromethorphan",89.3%
same,Survived animal,"CD-1 mice given LPS/GalN [3]; DM 12.5 mg/kg, n = 56",50
same,Rate of survival,CD-1 mice given LPS/GalN [3]; DM 25 mg/kg,about 90%
same,Rate of survival,"CD-1 mice given LPS/GalN [3]; DM 25 mg/kg, listed as Dextromethorphan",91.6%
same,Survived animal,"CD-1 mice given LPS/GalN [3]; DM 25 mg/kg, n = 12",11
same,protection against LPS/GalN-induced lethal shock,CD-1 mice given LPS/GalN [3]; DM 30 min post LPS/GalN challenge,also observed
"CCCC(CCC)C(=O)O [VPA, Valproic acid]",neurite outgrowth (MAP-2 immunostaining),[4],Much smaller effects
